Test results taken from article PMC10817531, “Chlorinated Enyne Fatty Acid Amides from a Marine Cyanobacterium: Discovery of Taveuniamides L-M and Pharmacological Characterization of Taveuniamide F as a GPCR Antagonist with CNR1 Selectivity” (Marine Drugs, 2023).

Tests used:
ADRB2 = ADRB2 (Homo sapiens, UniProt P07550); assay: PathHunter β-arrestin GpcrMAX assay; format: cell-based
Experimental: (§1) GpcrMAX panel biosensor assays were used to characterize taveuniamide F (4, 20 µM) (agonist and antagonist mode). The experiments were carried out by DiscoveRx Corporation (Fremont, CA, USA) as described before, using PathHunter β-arrestin enzyme fragment complementation (EFC) technology.

AGTR1 = AGTR1 (Homo sapiens, UniProt P30556); assay: PathHunter β-arrestin GpcrMAX assay; format: cell-based
Experimental: as §1

C5L2 = C5L2 (Homo sapiens, UniProt Q9P296); assay: PathHunter β-arrestin GpcrMAX assay; format: cell-based
Experimental: as §1

CALCR-RAMP2 = CALCR-RAMP2 (Homo sapiens, UniProt O60895+P30988); assay: PathHunter β-arrestin GpcrMAX assay; format: cell-based
Experimental: as §1

CCR4 = target: T1, CCR4 (Homo sapiens, UniProt P51679); assay: PathHunter β-arrestin GpcrMAX assay; format: cell-based
T1 construct: purchased DiscoveRx (Eurofins) gpcrMAX PathHunter β-arrestin panel
Experimental: as §1

CHRM5 = target: T2, CHRM5 (Homo sapiens, UniProt P08912); assay: PathHunter β-arrestin GpcrMAX assay; format: cell-based
T2 construct: purchased DiscoveRx (Eurofins) gpcrMAX PathHunter β-arrestin panel
Experimental: as §1

CMKLR1 = target: T3, CMKLR1 (Homo sapiens, UniProt Q99788); assay: PathHunter β-arrestin GpcrMAX assay; format: cell-based
T3 construct: purchased DiscoveRx (Eurofins) gpcrMAX PathHunter β-arrestin panel
Experimental: as §1

CXCR4 = target: T4, CXCR4 (Homo sapiens, UniProt P61073); assay: PathHunter β-arrestin GpcrMAX assay; format: cell-based
T4 construct: purchased DiscoveRx (Eurofins) gpcrMAX PathHunter β-arrestin panel
Experimental: as §1

DRD3 = target: T5, DRD3 (Homo sapiens, UniProt P35462); assay: PathHunter β-arrestin GpcrMAX assay; format: cell-based
T5 construct: purchased DiscoveRx (Eurofins) gpcrMAX PathHunter β-arrestin panel
Experimental: as §1

GPR109B = target: T6, GPR109B (Homo sapiens, UniProt P49019); assay: PathHunter β-arrestin GpcrMAX assay; format: cell-based
T6 construct: purchased DiscoveRx (Eurofins) gpcrMAX PathHunter β-arrestin panel
Experimental: as §1

NPY1R = target: T7, NPY1R (Homo sapiens, UniProt P25929); assay: PathHunter β-arrestin GpcrMAX assay; format: cell-based
T7 construct: purchased DiscoveRx (Eurofins) gpcrMAX PathHunter β-arrestin panel
Experimental: as §1

OPRK1 = target: T8, OPRK1 (Homo sapiens, UniProt P41145); assay: PathHunter β-arrestin GpcrMAX assay; format: cell-based
T8 construct: purchased DiscoveRx (Eurofins) gpcrMAX PathHunter β-arrestin panel
Experimental: as §1

OPRL1 = target: T9, OPRL1 (Homo sapiens, UniProt P41146); assay: PathHunter β-arrestin GpcrMAX assay; format: cell-based
T9 construct: purchased DiscoveRx (Eurofins) gpcrMAX PathHunter β-arrestin panel
Experimental: as §1

P2RY4 = target: T10, P2RY4 (Homo sapiens, UniProt P51582); assay: PathHunter β-arrestin GpcrMAX assay; format: cell-based
T10 construct: purchased DiscoveRx (Eurofins) gpcrMAX PathHunter β-arrestin panel
Experimental: as §1

PTGER4 = target: T11, PTGER4 (Homo sapiens, UniProt P35408); assay: PathHunter β-arrestin GpcrMAX assay; format: cell-based
T11 construct: purchased DiscoveRx (Eurofins) gpcrMAX PathHunter β-arrestin panel
Experimental: as §1

TACR2 = target: T12, TACR2 (Homo sapiens, UniProt P21452); assay: PathHunter β-arrestin GpcrMAX assay; format: cell-based
T12 construct: purchased DiscoveRx (Eurofins) gpcrMAX PathHunter β-arrestin panel
Experimental: as §1

TACR3 = target: T13, TACR3 (Homo sapiens, UniProt P29371); assay: PathHunter β-arrestin GpcrMAX assay; format: cell-based
T13 construct: purchased DiscoveRx (Eurofins) gpcrMAX PathHunter β-arrestin panel
Experimental: as §1

[1] = target: T14, human recombinant cannabinoid CNR1 receptors (Homo sapiens, UniProt P21554); assay: Competitive radioligand binding assay ([3H]SR141716A); details: 2 nM [3H]SR141716A, 60 min, 37 °C, Chem-1 cell membranes
T14 construct: host or cells: rat hematopoietic Chem-1 cells (membrane homogenate)
Experimental: (a) Competitive radioligand binding assay of 4 to CNR1. Membrane homogenate of rat hematopoietic Chem-1 cells expressing human recombinant CNR1 receptors is incubated with 2 nM [3H]SR141716A for 60 min at 37 °C. […] (b) Effect of 4 in CNR1 cAMP functional assay in agonist and antagonist mode. Experiments were carried out as technical duplicates. Data are presented as mean ± SD (n = 2).
The assay was carried out by Eurofins Panlabs Discovery Services (New Taipei City, Taiwan). Human recombinant cannabinoid CNR1 receptors expressed in rat hematopoietic Chem-1 cells were used in modified HEPES buffer (50 mM HEPES, pH 7.4, 5 mM MgCl2, 1 mM CaCl2, 0.2% BSA). A 5 µg aliquot of membrane homogenate was incubated with 2 nM [^3H]SR141716A for 60 min at 37 °C. […] Membranes were filtered and washed four times and the filters were counted to determine [^3H]SR141716A as specifically bound. Compound 4 was screened at 8 concentrations, where the highest concentration was 50 µM. […] The experiments were carried out as technical duplicates.

CNR1 = target: T15, CNR1 (Homo sapiens, UniProt P21554); assay: cAMP Hunter eXpress CNR1 (CB1) CHO-K1 GPCR assay; format: cell-based
T15 construct: host or cells: CHO-K1
Experimental: The experiments (agonist and antagonist mode) were carried out by DiscoveRx Corporation (Fremont, CA, USA). Human CNR1 in stably transfected CHO-K1 cells were seeded in a total volume of 20 μL into white-walled, 384-well microplates and incubated at 37 °C overnight. Before testing, cell plating media was exchanged with 10 μL of assay buffer (HBSS + 10 mM HEPES).
As described in catalog ref. (86-0007P-2277AG) for the agonist mode, intermediate dilution of sample stocks was performed to generate 4× samples in assay buffer. A total of 5 μL of 4× sample and 5 μL of 4× forskolin were added to cells and incubated at 37 °C for 30 min. The final assay vehicle concentration was 1%. The results are expressed as a percent efficacy relative to the maximum response of the control ligand.
As described in catalog ref. (86-0007P-2277AN) for the antagonist mode, intermediate dilution of sample stocks was performed to generate 4× samples in assay buffer. A total of 5 μL of 4X sample was added to cells and incubated at 37 °C for 30 min, and 5uL of 4× EC80 of CP55940 in 4× forskolin reagent was added and cells incubated for 37 °C for 30 min. The final assay vehicle concentration was 1%. The results are expressed as a percent inhibition of the control ligand. The assays were performed at 10-point concentrations of 4 using 3-fold serial dilutions in duplicate, where the highest concentration was 50 µM.

MTT cell viability assay = format: cell-based; details: human, HEK293 cells; 24 h exposure, majority of tested concentrations (below 100 μM)
Experimental: (§2) HEK293 cells were purchased from ATCC (Manassas, VA, USA). They were cultured and maintained in Dulbecco’s modified Eagle medium (DMEM; Invitrogen, Waltham, MA, USA) supplemented with 10% fetal bovine serum (FBS; HyClone, Logan, UT, USA) and 1% antibiotic-antimycotic (Invitrogen) at 37 °C in a humidified atmosphere with 5% CO2. HEK293 cells were seeded in 96-well plates at densities of 15,000 cells per well in 100 μL, respectively. After 16 h of incubation, the cells were treated with 0.5 μL of various concentrations of compounds or a DMSO solvent control. Following 24 h of incubation, cells were treated with 3-(4,5-dimethylthiazol-2-yl)-2,5-diphenyltetrazolium bromide according to the manufacturer’s instructions (Promega, Madison, WI, USA). The experiments were performed as technical triplicates.

HEK293 cells = assay: MTT cell viability assay; format: cell-based; details: 24 h exposure, 100 μM
Experimental: as §2

T15 sequence (P21554 whole entry): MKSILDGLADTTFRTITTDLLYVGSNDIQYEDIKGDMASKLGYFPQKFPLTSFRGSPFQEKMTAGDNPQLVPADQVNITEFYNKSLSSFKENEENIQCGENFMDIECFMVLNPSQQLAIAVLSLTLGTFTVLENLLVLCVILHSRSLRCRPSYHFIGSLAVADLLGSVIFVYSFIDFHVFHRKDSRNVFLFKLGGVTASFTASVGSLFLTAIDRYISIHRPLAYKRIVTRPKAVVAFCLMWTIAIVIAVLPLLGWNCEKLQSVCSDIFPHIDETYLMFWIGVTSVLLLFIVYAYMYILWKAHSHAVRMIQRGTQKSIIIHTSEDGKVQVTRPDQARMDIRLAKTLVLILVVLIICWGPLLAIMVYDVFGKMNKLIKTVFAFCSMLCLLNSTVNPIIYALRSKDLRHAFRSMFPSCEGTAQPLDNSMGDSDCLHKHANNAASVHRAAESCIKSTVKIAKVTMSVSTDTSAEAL
T14 sequence (P21554 whole entry): as above
T6 sequence (P49019 whole entry): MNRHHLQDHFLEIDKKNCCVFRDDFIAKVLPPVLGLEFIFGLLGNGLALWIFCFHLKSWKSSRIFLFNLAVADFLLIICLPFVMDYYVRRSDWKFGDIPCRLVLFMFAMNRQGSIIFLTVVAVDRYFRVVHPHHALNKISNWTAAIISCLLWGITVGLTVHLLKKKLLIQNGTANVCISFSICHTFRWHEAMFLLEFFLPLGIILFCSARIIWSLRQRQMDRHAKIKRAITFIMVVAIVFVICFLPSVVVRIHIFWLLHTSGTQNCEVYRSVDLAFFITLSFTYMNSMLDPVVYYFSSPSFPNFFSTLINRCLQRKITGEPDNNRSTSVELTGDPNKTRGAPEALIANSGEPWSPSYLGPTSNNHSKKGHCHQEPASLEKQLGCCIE
T10 sequence (P51582 whole entry): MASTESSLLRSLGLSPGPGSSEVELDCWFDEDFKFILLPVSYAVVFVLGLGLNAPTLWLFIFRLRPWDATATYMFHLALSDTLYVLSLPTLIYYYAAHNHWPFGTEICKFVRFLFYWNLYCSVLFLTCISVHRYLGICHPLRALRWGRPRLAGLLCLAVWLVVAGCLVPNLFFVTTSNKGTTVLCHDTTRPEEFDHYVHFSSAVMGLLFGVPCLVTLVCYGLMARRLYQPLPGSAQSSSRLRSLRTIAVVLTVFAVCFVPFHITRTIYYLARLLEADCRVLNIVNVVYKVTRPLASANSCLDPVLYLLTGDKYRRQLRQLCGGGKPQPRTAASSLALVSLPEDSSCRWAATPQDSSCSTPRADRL
T2 sequence (P08912 whole entry): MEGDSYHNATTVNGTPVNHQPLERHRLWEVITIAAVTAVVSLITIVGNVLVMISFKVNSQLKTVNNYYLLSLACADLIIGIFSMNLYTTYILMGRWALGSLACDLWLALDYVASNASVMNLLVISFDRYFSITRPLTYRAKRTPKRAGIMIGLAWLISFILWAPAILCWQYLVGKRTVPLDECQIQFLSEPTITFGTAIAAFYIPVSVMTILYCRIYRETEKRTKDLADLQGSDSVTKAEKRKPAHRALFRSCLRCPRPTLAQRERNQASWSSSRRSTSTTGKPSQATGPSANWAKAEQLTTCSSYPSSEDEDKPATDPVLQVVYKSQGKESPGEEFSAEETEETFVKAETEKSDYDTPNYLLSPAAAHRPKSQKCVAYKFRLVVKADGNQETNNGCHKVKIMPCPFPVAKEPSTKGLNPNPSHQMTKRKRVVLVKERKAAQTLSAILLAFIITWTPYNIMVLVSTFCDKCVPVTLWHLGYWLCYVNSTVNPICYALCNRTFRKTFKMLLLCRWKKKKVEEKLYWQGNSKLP
ADRB2, sequence (P07550 whole entry, the tested form may be a part): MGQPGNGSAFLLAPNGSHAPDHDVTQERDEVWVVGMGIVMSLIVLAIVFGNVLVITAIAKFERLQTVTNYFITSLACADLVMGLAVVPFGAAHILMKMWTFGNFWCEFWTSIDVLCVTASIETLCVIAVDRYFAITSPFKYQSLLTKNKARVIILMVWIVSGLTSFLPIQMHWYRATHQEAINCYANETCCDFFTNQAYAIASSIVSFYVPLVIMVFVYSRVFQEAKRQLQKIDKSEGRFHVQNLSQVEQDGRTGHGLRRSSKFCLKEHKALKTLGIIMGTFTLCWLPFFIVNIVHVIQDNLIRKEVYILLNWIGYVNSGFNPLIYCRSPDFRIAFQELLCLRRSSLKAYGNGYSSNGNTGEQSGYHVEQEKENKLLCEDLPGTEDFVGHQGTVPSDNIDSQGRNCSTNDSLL
T12 sequence (P21452 whole entry): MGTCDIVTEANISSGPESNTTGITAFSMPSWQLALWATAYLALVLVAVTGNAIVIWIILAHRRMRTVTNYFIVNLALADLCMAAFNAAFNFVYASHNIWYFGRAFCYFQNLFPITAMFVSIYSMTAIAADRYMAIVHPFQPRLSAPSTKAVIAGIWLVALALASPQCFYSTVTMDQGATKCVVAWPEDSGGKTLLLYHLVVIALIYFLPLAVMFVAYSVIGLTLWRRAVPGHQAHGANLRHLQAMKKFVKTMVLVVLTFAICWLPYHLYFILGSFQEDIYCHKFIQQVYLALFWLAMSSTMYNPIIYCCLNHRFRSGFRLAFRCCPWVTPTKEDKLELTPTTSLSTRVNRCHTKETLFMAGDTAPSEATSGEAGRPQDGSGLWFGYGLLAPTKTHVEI
T8 sequence (P41145 whole entry): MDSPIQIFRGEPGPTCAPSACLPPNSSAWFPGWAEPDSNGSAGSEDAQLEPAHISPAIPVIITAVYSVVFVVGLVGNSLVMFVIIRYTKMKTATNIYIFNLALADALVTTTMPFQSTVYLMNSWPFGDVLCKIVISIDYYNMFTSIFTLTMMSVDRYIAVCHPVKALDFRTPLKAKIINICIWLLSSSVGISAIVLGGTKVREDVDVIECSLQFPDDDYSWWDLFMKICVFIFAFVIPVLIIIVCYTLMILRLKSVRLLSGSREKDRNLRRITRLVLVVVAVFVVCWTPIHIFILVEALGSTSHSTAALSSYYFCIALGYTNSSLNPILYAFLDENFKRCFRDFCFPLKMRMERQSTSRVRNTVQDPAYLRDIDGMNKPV
T13 sequence (P29371 whole entry): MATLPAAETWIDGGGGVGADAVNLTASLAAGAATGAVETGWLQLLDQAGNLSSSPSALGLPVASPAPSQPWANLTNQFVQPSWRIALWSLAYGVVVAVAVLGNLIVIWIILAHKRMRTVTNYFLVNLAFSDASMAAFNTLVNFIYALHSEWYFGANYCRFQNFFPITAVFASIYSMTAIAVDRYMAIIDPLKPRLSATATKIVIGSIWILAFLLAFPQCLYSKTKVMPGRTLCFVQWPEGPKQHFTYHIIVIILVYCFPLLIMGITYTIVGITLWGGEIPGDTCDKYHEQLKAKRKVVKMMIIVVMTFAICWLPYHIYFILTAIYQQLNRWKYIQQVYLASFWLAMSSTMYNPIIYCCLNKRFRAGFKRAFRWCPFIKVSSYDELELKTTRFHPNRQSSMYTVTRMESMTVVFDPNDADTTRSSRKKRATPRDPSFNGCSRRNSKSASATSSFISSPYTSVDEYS
T3 sequence (Q99788 whole entry): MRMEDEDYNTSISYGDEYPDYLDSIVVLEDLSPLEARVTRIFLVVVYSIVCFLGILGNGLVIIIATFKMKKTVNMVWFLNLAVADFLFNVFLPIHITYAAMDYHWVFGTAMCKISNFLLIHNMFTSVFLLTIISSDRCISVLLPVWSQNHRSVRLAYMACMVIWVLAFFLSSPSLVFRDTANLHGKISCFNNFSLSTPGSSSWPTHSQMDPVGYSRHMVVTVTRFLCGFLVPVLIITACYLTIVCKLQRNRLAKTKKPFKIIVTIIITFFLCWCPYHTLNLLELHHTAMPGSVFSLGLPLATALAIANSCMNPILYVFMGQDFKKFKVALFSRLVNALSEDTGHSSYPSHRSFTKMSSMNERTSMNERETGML
T11 sequence (P35408 whole entry): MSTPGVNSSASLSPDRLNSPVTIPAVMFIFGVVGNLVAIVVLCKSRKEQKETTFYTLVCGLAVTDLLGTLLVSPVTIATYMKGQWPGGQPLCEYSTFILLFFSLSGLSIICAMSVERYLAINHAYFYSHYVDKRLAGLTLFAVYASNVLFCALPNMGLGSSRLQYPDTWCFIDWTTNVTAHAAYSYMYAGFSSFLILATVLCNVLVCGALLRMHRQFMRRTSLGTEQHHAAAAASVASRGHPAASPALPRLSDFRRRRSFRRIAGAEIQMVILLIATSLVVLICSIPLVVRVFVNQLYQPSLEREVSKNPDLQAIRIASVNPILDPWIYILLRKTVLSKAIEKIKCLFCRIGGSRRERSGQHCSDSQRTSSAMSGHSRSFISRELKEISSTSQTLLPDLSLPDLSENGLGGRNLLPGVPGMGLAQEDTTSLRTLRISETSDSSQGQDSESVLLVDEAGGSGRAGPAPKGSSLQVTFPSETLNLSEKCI
T1 sequence (P51679 whole entry): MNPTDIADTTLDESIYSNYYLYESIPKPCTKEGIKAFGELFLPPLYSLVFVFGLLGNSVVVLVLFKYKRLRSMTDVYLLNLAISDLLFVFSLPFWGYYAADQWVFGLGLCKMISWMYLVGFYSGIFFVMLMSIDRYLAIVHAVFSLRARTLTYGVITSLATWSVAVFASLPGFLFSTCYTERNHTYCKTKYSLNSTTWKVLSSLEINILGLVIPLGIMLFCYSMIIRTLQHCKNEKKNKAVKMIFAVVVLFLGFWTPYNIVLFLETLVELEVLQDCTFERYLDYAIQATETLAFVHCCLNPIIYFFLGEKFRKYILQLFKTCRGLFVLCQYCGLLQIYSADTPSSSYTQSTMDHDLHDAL

**Q.** With `CC(=O)N[C@@H](CCCC#C/C=C/Cl)CCCCCCC(Cl)Cl` [Compound 4, taveuniamide F] as the molecule, how does the inhibition at 20 µM (ADRB2) read?
**A.** Its inhibition at 20 µM is 25.3%.

**Q.** What about the inhibition at 20 µM (AGTR1) of the same molecule?
**A.** Its inhibition at 20 µM is 23.3%.

**Q.** What about the inhibition at 20 µM (C5L2) of the same molecule?
**A.** The inhibition at 20 µM was 24.1%.

**Q.** What about the inhibition at 20 µM (CALCR-RAMP2) of the same molecule?
**A.** Its inhibition at 20 µM is 58.6%.

**Q.** And the inhibition at 20 µM (CCR4)?
**A.** Its inhibition at 20 µM is 58.9%.

**Q.** And the inhibition at 20 µM (CHRM5)?
**A.** Its inhibition at 20 µM is 31.6%.

**Q.** What about the inhibition at 20 µM (CMKLR1) of the same molecule?
**A.** The inhibition at 20 µM was 21.4%.

**Q.** What about the inhibition at 20 µM (CXCR4) of the same molecule?
**A.** Its inhibition at 20 µM is 43.8%.

**Q.** And the inhibition at 20 µM (DRD3)?
**A.** The inhibition at 20 µM was 9.6%.

**Q.** What about the inhibition at 20 µM (GPR109B) of the same molecule?
**A.** Its inhibition at 20 µM is 36.1%.

**Q.** And the inhibition at 20 µM (NPY1R)?
**A.** The inhibition at 20 µM was 3.4%.

**Q.** And the inhibition at 20 µM (OPRK1)?
**A.** Its inhibition at 20 µM is 20.1%.

**Q.** And the inhibition at 20 µM (OPRL1)?
**A.** Its inhibition at 20 µM is 5.4%.

**Q.** And the inhibition at 20 µM (P2RY4)?
**A.** Its inhibition at 20 µM is 68.8%.

**Q.** What about the inhibition at 20 µM (PTGER4) of the same molecule?
**A.** The inhibition at 20 µM was 36.5%.

**Q.** And the inhibition at 20 µM (TACR2)?
**A.** Its inhibition at 20 µM is 59.3%.

**Q.** And the inhibition at 20 µM (TACR3)?
**A.** Its inhibition at 20 µM is 15.2%.

**Q.** What about the IC50 [1] of the same molecule?
**A.** The IC50 was 37.7 µM.

**Q.** What about the Ki [1] of the same molecule?
**A.** Its Ki is 34 µM.

**Q.** And the “mode of activity in CNR1 cAMP functional assay” value (CNR1; agonist and antagonist mode)?
**A.** Its value is “antagonist/inverse agonist”.

**Q.** And the IC50 (CNR1; antagonist mode, EC80 of CP55940, forskolin, CHO-K1 cells, read-out: IC50, inhibition of CNR1-agonist-induced cAMP downregulation)?
**A.** Its IC50 is 21 µM.

**Q.** And the viability at 24 h (MTT cell viability assay)?
**A.** Its viability at 24 h is 100%.

**Q.** What about the “reduction in cell viability” value (HEK293 cells) of the same molecule?
**A.** Its value is 56%.
